Results taken from patent US10683291B2, “Heterocyclic compounds for the treatment of disease” (OPPILAN PHARMA LTD., priority 2015, dated 2020).
pEC50: −log10 of the molar value.

What was measured:
human S1P1 = human S1P1 (Homo sapiens (Human), UniProt P21453); assay: GTPγS binding assay (scintillation proximity assay); assay type: biochemical; details: S1P1 membrane from CHO-K1 Gαqi5 cells expressing full-length human S1P1; GTPγ35S SPA
Description: S1P1 membrane is prepared from CHO-K1 Gαqi5 cells expression full-length human S1P1. Scintillation proximity assay (SPA) is performed by incubating membranes, GTPγ^35S, and compounds at various concentrations for 60 minutes. Wheat germ agglutinin-coated SPA beads are added and incubated for 60 minutes before centrifugation and scintillation counting.

lymphocyte count = assay: Lymphocyte count in mice; assay type: in vivo; details: 10 mg/kg p.o., blood at 4 hr, FIG. 2
Description: A total of 6 mice were used in this study for each compound (Examples 1-6) and divided in two groups as Group 1 (vehicle, Dose: 10 mL/kg) and Group 2 (Compound, Dose: 10 mg/kg, p.o.). Animals in Group 1 were administered with vehicle. Animals in Group 2 were administered with solution formulation of PTC1566-1 at 10 mg/kg dose through oral route. Blood samples from Group 2 were collected under light isoflurane anesthesia from a set of three mice at 1 & 4 hr (p.o.) and from Group 1 blood samples were collected at 4 hr. Plasma was harvested by centrifugation of blood and stored at −70° C. until analysis. Brain was collected at 4 hr from Group 2 animals, weighed and transferred in a poly-propylene tube. Two volumes of PBS buffer (pH 7.4) was added and homogenized to get final volume of 3 times and stored below −70° C. until bioanalysis. Blood sample at 4 hr from both groups were used for lymphocyte count. Analysis Plasma and Brain samples were quantified by fit-for-purpose LCMS/MS method (LLOQ: 4.91 ng/mL for plasma and 14.73 ng/g for brain). For each of the six compounds tested, plasma concentration was greater than 2600 ng/mL at 1 hr and greater than 2100 ng/mL at 4 hr. For each of the six compounds tested, brain concentration was less than 200 ng/g. For each of the six compounds tested (Compound 15, Compound 18, Compound 19, Compound 16, Compound 11, and Compound 13), the lymphocyte count was less than 45% of control (FIG. 2).

human S1P1, sequence (P21453 whole entry): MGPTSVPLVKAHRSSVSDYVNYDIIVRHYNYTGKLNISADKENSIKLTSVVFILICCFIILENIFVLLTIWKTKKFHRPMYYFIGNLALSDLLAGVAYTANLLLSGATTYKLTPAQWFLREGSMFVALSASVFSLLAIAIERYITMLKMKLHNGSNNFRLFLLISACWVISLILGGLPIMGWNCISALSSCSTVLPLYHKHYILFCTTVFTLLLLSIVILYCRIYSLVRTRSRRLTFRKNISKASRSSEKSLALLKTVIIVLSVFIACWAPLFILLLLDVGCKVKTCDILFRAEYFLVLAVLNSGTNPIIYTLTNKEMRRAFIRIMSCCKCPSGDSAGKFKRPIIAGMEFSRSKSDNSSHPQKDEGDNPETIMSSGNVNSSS

SMILES	pEC50 (human S1P1)	lymphocyte count (lymphocyte count)
O=C1CC[C@@H](COc2cc(Cl)c(-c3noc(-c4cn5cc(C(F)(F)F)cc(Cl)c5n4)n3)cc2Cl)N1 [Example 1, (S)-5-((2,5-dichloro-4-(5-(8-chloro-6-(trifluoromethyl)imidazo[1,2-a]pyridin-2-yl)-1,2,4-oxadiazol-3-yl)phenoxy)methyl)pyrrolidin-2-one]	> 6.00	less than 45 % of control
O=C1CC[C@H](COc2cc(Cl)c(-c3noc(-c4cn5cc(C(F)(F)F)cc(Cl)c5n4)n3)cc2Cl)N1 [Example 3, (R)-5-((2,5-dichloro-4-(5-(8-chloro-6-(trifluoromethyl)imidazo[1,2-a]pyridin-2-yl)-1,2,4-oxadiazol-3-yl)phenoxy)methyl)pyrrolidin-2-one]		less than 45 % of control
CN1C[C@@H](Oc2cc(Cl)c(-c3noc(-c4cn5cc(C(F)(F)F)cc(Cl)c5n4)n3)cc2Cl)CCC1=O [Example 4, (S)-5-(2,5-dichloro-4-(5-(8-chloro-6-(trifluoromethyl)imidazo[1,2-a]pyridin-2-yl)-1,2,4-oxadiazol-3-yl)phenoxy)-1-methylpiperidin-2-one]		less than 45 % of control

Continued, in another order:

pEC50 (human S1P1)	SMILES	lymphocyte count (lymphocyte count)
> 6.00	O=C1CC[C@@H](Oc2cc(Cl)c(-c3noc(-c4cn5cc(C(F)(F)F)cc(Cl)c5n4)n3)cc2Cl)CN1 [Example 5, (R)-5-(2,5-dichloro-4-(5-(8-chloro-6-(trifluoromethyl)imidazo[1,2-a]pyridin-2-yl)-1,2,4-oxadiazol-3-yl)phenoxy)piperidin-2-one]	less than 45 % of control
> 6.00	CN1C[C@H](Oc2cc(Cl)c(-c3noc(-c4cn5cc(C(F)(F)F)cc(Cl)c5n4)n3)cc2Cl)CCC1=O [Example 6, (R)-5-(2,5-dichloro-4-(5-(8-chloro-6-(trifluoromethyl)imidazo[1,2-a]pyridin-2-yl)-1,2,4-oxadiazol-3-yl)phenoxy)-1-methylpiperidin-2-one]	less than 45 % of control
